Measurements as given in US7442715B2, “Thiazole derivatives” (Astellas Pharma Inc., priority 2003, dated 2008).
Structures can show the parent of a compound that is named as a salt.

Columns and labels:
Human plasma SSAO = molecular target: T1, Human plasma SSAO (Homo sapiens, UniProt Q16853); experiment: VAP-1 enzyme (SSAO) activity in human plasma, radiochemical-enzyme assay with 14C-benzylamine; type: biochemical
T1 construct: The enzyme suspension prepared from blood plasma was pre-incubated with Compound A; from tissue; host or cells: human blood plasma
T1 sequence (Q16853 29-763 limits assumed): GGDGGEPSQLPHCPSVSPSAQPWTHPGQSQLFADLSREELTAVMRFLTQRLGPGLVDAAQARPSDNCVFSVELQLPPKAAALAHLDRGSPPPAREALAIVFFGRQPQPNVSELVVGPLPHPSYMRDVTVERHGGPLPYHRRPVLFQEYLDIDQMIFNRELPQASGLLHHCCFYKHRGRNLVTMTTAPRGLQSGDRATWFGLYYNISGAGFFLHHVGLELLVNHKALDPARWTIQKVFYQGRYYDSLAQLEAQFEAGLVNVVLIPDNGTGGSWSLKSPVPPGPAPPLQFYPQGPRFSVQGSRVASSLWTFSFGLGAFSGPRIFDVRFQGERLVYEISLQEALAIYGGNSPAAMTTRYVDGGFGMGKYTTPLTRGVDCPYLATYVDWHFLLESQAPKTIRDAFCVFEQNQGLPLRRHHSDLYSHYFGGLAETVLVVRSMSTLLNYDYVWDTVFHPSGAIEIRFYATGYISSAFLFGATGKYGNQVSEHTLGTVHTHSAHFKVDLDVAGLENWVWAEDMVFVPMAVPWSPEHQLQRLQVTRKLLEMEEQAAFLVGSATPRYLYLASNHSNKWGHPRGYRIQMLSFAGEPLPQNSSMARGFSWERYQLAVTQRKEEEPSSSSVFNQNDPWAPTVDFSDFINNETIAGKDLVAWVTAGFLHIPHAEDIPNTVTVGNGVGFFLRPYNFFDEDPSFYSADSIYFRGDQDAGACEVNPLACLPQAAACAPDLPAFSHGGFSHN
Description: (§1) VAP-1 enzyme (SSAO) activity in both human and rat plasma was determined by a radiochemical-enzyme assay using ^14C-benzylamine as artificial substrate. The enzyme suspension prepared from blood plasma was pre-incubated with Compound A in 96-well microplate at room temperature for 30 min. The enzyme suspension was then incubated with ^14C-benzylamine (2×10^−5 mol/l final concentration) in a final volume of 50 μl at 37° C. for 1 hour. The enzyme reaction was terminated by adding 2 mol/l (50 μl) citric acid. The oxidized products were directly extracted into a 200 μl toluene scintillator, and its radioactivity was measured by a scintillation spectrometer. Monoamine oxidase (MAO) and diamine oxidase (DAO, histaminase) activities were also determined by similar method using ^14C-phenylethylamine and ^14C-putrescine as substrate, respectively. Cloned DAO from cDNA libraries was used in human DAO assay. Inhibition activity was expressed as IC50 (μmol/l) value.

Rat plasma SSAO = molecular target: T2, Rat plasma SSAO (Rattus norvegicus, UniProt O08590); experiment: VAP-1 enzyme (SSAO) activity in rat plasma, radiochemical-enzyme assay with 14C-benzylamine; type: biochemical
T2 construct: The enzyme suspension prepared from blood plasma was pre-incubated with Compound A; from tissue; host or cells: rat blood plasma
T2 sequence (O08590 29-763 limits assumed): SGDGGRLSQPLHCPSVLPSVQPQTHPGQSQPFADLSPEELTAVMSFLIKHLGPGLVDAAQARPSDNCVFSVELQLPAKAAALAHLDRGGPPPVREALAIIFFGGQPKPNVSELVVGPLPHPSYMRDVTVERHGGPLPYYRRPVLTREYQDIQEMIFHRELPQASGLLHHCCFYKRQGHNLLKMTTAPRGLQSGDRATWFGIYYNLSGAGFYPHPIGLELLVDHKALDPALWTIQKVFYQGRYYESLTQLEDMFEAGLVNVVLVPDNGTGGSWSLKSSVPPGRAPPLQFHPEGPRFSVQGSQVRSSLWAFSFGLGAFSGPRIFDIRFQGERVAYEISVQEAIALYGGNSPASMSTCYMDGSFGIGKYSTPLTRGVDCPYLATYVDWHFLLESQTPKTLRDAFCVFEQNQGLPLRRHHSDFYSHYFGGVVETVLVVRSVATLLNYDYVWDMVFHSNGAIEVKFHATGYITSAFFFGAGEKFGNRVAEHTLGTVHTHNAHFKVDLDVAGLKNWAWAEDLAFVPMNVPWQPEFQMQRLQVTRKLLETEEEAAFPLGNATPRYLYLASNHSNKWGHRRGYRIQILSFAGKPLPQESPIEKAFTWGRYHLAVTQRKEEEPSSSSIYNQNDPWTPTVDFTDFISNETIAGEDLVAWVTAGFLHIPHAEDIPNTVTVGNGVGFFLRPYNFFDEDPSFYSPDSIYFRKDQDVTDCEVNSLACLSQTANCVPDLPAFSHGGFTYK
Description: as §1

plasma SSAO = molecular target: T3, plasma SSAO (Rattus norvegicus, UniProt O08590); experiment: Plasma SSAO activity in STZ-induced diabetic rats after treatment; type: in vivo
T3 construct: from tissue; host or cells: plasma of STZ-induced diabetic rats
T3 sequence (O08590 29-763 limits assumed): T2 sequence (O08590 29-763 limits assumed)
Description: Diabetes in rat was induced with an intraperitoneal (i.p.) injection of 65 mg/ml/kg of streptozotocin (STZ) in 2 mmol/l citrate buffer (pH 4.5) after a 20-h fast. At the same time control rat were injected with an equal volume of 2 mmol/l citrate buffer. Plasma glucose level was checked by a calorimetric method. At day 3 of STZ treatment, the rat was diagnosed with diabetes showing a plasma glucose level of 350 mg/dl.
The treatment of Compound A was given daily from 2 weeks after STZ treatment for 2 weeks. At 24 hrs after final treatment of Compound A, the vascular permeability in oculus was investigated based on the leakage of dye into the vitreous 30 min after intravenous injection of fluorescein solution (40 mg/ml/kg). Permeability was expressed as vitreous/plasma ratio of fluorescein concentration measured by a fluorophotometer. At the same time, the plasma SSAO activity was checked by the radiochemical-enzyme assay using ^14C-benzylamine (2×10^−5 mol/l final concentration) as substrate.

CC(=O)Nc1nc(CCc2ccc(NC(=N)N)cc2)c(Cc2ccc(S(C)(=O)=O)cc2)s1 [Production Example 48, N-{4-[2-(4-{[amino(imino)methyl]amino}phenyl)ethyl]-5-[4-(methylsulfonyl)benzyl]-1,3-thiazol-2-yl}acetamide]
melting point: 228 to 229.5 °C

CC(=O)Nc1nc(CCc2ccc(CC(=N)N)cc2)cs1 (as salt: hydrochloride) [Production Example 59, N-(4-{2-[4-(2-amino-2-iminoethyl)phenyl]ethyl}-1,3-thiazol-2-yl)acetamide]
melting point: 190.5 to 192 °C

CC(=O)Nc1nc(CCc2ccc(CON)cc2)cs1 [Production Example 16, N-[4-(2-{4-[(aminooxy)methyl]phenyl}ethyl)-1,3-thiazol-2-yl]acetamide]
melting point: 130 to 130.5 °C

CC(=O)Nc1nc(CCc2ccc(NC(=N)NN)cc2)cs1 [Production Example 58, N-{4-[2-(4-{[hydrazino(imino)methyl]amino}phenyl)ethyl]-1,3-thiazol-2-yl}acetamide]
melting point: 216.5 to 218 °C

CC(=O)Nc1nc(CCc2ccc(NC3=NCCS3)cc2)cs1 [Production Example 2, N-(4-(2-(4-(4,5-dihydro-1,3-thiazol-2-ylamino)phenyl)ethyl)-1,3-thiazol-2-yl)acetamide]
melting point: 218 to 219.5 °C

CC(=O)Nc1nc(CCc2ccc(C(=O)NC(=N)N)cc2)c(Cc2ccc(S(C)(=O)=O)cc2)s1 [Production Example 106, 4-(2-{2-(acetylamino)-5-[4-(methylsulfonyl)benzyl]-1,3-thiazol-4-yl}ethyl)-N-[amino(imino)methyl]benzamide]
melting point: 108 to 109.5 °C

CC(=O)Nc1nc(CCc2ccc(C(=N)N)cc2)cs1.Cl
melting point: 229.5 to 231 °C

CC(=O)Nc1nc(CCc2ccc(NC(=N)N)cc2)cs1 [Compound A, N-{4-[2-(4-{[amino(imino)methyl]amino}phenyl)ethyl]-1,3-thiazol-2-yl}acetamide]
Inhibition of enzyme activity of human plasma SSAO (in words) (Human plasma SSAO): completely inhibited
Inhibition of enzyme activity of rat plasma SSAO (in words) (Rat plasma SSAO): completely inhibited
Plasma SSAO activity (plasma SSAO; STZ diabetic rats, daily treatment for 2 weeks from 2 weeks after STZ, 14C-benzylamine 2×10^−5 mol/l, mean±S.E.M., 10 rats): 2.51 ± 0.26 pmol/min/mL
Effect on increased plasma SSAO activity in diabetic rats (in words) (plasma SSAO; diabetic rats at 4 weeks after STZ treatment): dose-dependent inhibition of the increased plasma SSAO activity

CC(=N)Nc1ccc(CCc2nc(NC(C)=O)sc2Cc2ccc(S(C)(=O)=O)cc2)cc1 [Production Example 56, N-{4-{2-[4-(ethanimidoylamino)phenyl]ethyl}-5-[4-(methylsulfonyl)benzyl]-1,3-thiazol-2-yl}acetamide]
melting point: 81.5 to 83 °C

CC(=O)Nc1nc(CCc2ccc(NC(=N)N)cc2)c(C(=O)NCc2ccc([N+](=O)[O-])cc2)s1.Cl
melting point: 138 to 140 °C
